DBAASP
≈ marks a conversion by molar mass, not a printed value.

Tests used:
Test in all cases: ≥ marks a high value that may be exact or a test limit, other limits are often not marked, values filed in µg/mL are converted to µM
[1] = system: Bacillus subtilis
[2] = system: Candida albicans
[3] = system: Escherichia coli
[4] = system: Staphylococcus aureus
[5] = system: Escherichia coli DH5alpha
[6] = system: Pseudomonas aeruginosa ATCC 27853
[7] = system: Staphylococcus aureus ATCC 25923
[8] = system: Escherichia coli ATCC 25922
[9] = system: Klebsiella pneumoniae
[10] = system: Candida albicans ATCC 10231
[11] = system: Pseudomonas aeruginosa ATCC 9027
[12] = system: Escherichia coli NCTC 10418

MIC [1] [µM] | MIC [2] [µM] | MIC [5] [µM] | MIC [6] [µM] | MIC [7] [µM] | MIC [8] [µM] | Compound | also measured
19 (≈ 37.5 µg/mL) | 2.37 (≈ 4.68 µg/mL) |  |  |  |  | CC[C@H](C)[C@H](NC(=O)CNC(=O)[C@H](CO)NC(=O)[C@H](CC(C)C)NC(=O)[C@H](CC(C)C)NC(=O)CN)C(=O)N[C@@H](CC(C)C)C(=O)NCC(=O)N[C@@H](C)C(=O)NCC(=O)N[C@@H](CCCCN)C(=O)N[C@@H](CCC(N)=O)C(=O)N[C@@H](CCCCN)C(=O)N[C@H](C(=O)N[C@H]1CSSC[C@@H](C(=O)O)NC(=O)[C@H](CC(C)C)NC(=O)CNC(=O)[C@H](CO)NC(=O)[C@H](CC(C)C)NC(=O)CNC1=O)C(C)C [GLLSGILGAGKQKVCGLSGLC] | MIC [3]: 4.75 µM (≈ 9.36 µg/mL); MIC [4]: 9.5 µM (≈ 18.7 µg/mL)
5 (≈ 8.54 µg/mL) |  | ≥ 60 | 150 (≈ 256 µg/mL) | 40 (≈ 68.3 µg/mL) |  | CC[C@H](C)[C@H](NC(=O)[C@H](Cc1ccccc1)NC(=O)[C@@H](NC(=O)[C@H](Cc1c[nH]c2ccccc12)NC(=O)[C@H](CCCN=C(N)N)NC(=O)[C@H](CCCCN)NC(=O)[C@H](CCCN=C(N)N)NC(=O)[C@H](CCCCN)NC(=O)[C@H](Cc1c[nH]c2ccccc12)NC(=O)[C@H](CC(C)C)NC(=O)[C@@H](NC(=O)[C@@H](N)Cc1ccc(O)cc1)C(C)C)[C@@H](C)CC)C(=O)O [YVLWKRKRWIFI] | 
 | > 190 |  |  | 190 (≈ 512 µg/mL) | 47.5 (≈ 128 µg/mL) | CC[C@H](C)[C@H](NC(=O)CNC(=O)[C@H](CC(N)=O)NC(=O)[C@@H](NC(=O)[C@H](C)NC(=O)[C@H](CC(N)=O)NC(=O)[C@H](CC(C)C)NC(=O)[C@H](C)NC(=O)[C@H](C)NC(=O)[C@H](CCCN=C(N)N)NC(=O)CNC(=O)[C@H](C)NC(=O)[C@H](C)NC(=O)[C@H](C)NC(=O)[C@H](C)NC(=O)[C@H](CCSC)NC(=O)[C@H](CC(=O)O)NC(=O)[C@H](CCCCN)NC(=O)[C@@H](NC(=O)[C@H](CO)NC(=O)[C@H](CO)NC(=O)[C@H](Cc1c[nH]c2ccccc12)NC(=O)[C@H](CC(C)C)NC(=O)[C@@H](N)CO)[C@@H](C)CC)C(C)C)C(=O)N[C@H](C(=O)N[C@@H](CC(N)=O)C(=O)N1CCC[C@H]1C(N)=O)C(C)C [SLWSSIKDMAAAAGRAALNAVNGIVNP] | MIC [9]: > 190 µM
 |  |  |  |  | 8580 (≈ 4520 µg/mL) | N[C@@H](CC(=O)O)C(=O)N[C@@H](CC(=O)O)C(=O)N[C@@H](CC(=O)O)C(=O)N[C@@H](Cc1ccc(O)cc1)C(=O)O [DDDY] | MIC [10]: 4290 µM (≈ 2260 µg/mL); MIC [11]: 68700 µM (≈ 36200 µg/mL)
 |  |  |  |  |  | CC[C@H](C)[C@H](NC(=O)CNC(=O)[C@@H]1CCCN1C(=O)[C@@H]1CCCN1C(=O)[C@H](Cc1ccccc1)NC(=O)[C@H](Cc1ccccc1)NC(=O)[C@@H]1CCCN1C(=O)[C@H](Cc1ccccc1)NC(=O)[C@@H](N)CO)C(=O)N[C@H]1CSSC[C@@H](C(=O)O)NC(=O)[C@H](CCCN=C(N)N)NC(=O)[C@H](CCCCN)NC(=O)[C@H](CC(C)C)NC(=O)[C@H](CCCN=C(N)N)NC(=O)[C@H](CCCCN)NC1=O [SFPFFPPGICKRLKRC] | MIC [12]: ≥ 35 µM
≥ 200 |  | ≥ 200 | > 200 | > 200 |  | CC[C@H](C)[C@H](NC(=O)[C@H](Cc1ccccc1)NC(=O)[C@@H](NC(=O)[C@H](C)NC(=O)[C@H](CCCN=C(N)N)NC(=O)[C@H](CCCCN)NC(=O)[C@H](CCCN=C(N)N)NC(=O)[C@H](CCCCN)NC(=O)[C@H](C)NC(=O)[C@H](CC(C)C)NC(=O)[C@@H](NC(=O)[C@@H](N)Cc1ccc(O)cc1)C(C)C)[C@@H](C)CC)C(=O)O [YVLAKRKRAIFI] | 
